From ChEMBL document CHEMBL1287663 (Bioorg Med Chem, 2010)

Legend:
[1] = biological target: Inosine-5'-monophosphate dehydrogenase 1 (Homo sapiens, UniProt P20839); assay: Inhibition of human IMPDH1 expressed in Escherichia coli strain BL21(DE3) after 60 mins
[2] = biological target: Inosine-5'-monophosphate dehydrogenase 2 (Homo sapiens, UniProt P12268); assay: Inhibition of human IMPDH2 expressed in Escherichia coli strain BL21(DE3) after 60 mins
Homo sapiens = species on record: Homo sapiens; assay: Selectivity ratio of IC50 for human IMPDH1 to IC50 for human IMPDH2
K562 [3] = assay: Cytotoxicity against human K562 cells after 72 hrs by trypan blue exclusion assay; format: functional, cell-based; conditions: K562, 72 h
K562 [4] = assay: Induction of human K562 cells differentiation assessed as hemoglobin/genomic DNA level at 2 uM after 72 hrs relative to untreated control; format: functional
K562 [5] = assay: Induction of human K562 cells differentiation assessed as hemoglobin/genomic DNA level at 4 uM after 72 hrs relative to untreated control; format: functional
K562 [6] = assay: Induction of human K562 cells differentiation assessed as hemoglobin/genomic DNA level at 8 uM after 72 hrs relative to untreated control; format: functional
K562 [7] = assay: Induction of human K562 cells differentiation assessed as hemoglobin/genomic DNA level at 16 uM after 72 hrs relative to untreated control; format: functional
K562 [8] = assay: Induction of human K562 cells differentiation assessed as hemoglobin/genomic DNA level at 32 uM after 72 hrs relative to untreated control; format: functional
[9] = Inhibition of HDAC
HeLa = assay: Antiproliferative activity against human HeLa cells; format: functional, cell-based
IMPDH2 = assay: Selectivity ratio of IC50 for human K562 cells to IC50 for human IMPDH2; format: ADME, cell-based; conditions: K562 cells versus IMPDH2 enzyme, read-out: Ratio IC50
K562 [10] = assay: Induction of human K562 cells differentiation assessed as hemoglobin/genomic DNA level at 0.5 uM after 72 hrs relative to untreated control; format: functional
K562 [11] = assay: Induction of human K562 cells differentiation assessed as hemoglobin/genomic DNA level at 1 uM after 72 hrs relative to untreated control; format: functional
K562 [12] = assay: Induction of human K562 cells differentiation assessed as hemoglobin/genomic DNA level at 0.25 uM after 72 hrs relative to untreated control; format: functional

Chain of Inosine-5'-monophosphate dehydrogenase 1 (P20839 whole entry): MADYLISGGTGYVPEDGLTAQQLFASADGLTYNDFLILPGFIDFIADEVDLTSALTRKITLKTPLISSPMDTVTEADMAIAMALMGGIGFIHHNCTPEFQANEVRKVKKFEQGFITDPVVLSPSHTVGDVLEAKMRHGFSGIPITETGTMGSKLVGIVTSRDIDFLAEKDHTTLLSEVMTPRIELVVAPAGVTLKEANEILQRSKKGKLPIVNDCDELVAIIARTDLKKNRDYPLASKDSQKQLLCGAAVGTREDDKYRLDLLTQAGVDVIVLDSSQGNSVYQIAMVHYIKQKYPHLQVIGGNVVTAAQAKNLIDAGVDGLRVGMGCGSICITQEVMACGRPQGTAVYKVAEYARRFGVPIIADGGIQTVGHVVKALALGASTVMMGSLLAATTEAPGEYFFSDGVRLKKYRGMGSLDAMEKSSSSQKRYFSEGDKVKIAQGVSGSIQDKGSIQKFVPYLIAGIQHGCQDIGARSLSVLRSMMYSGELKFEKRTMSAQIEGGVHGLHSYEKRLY

| IC50 [1] | IC50 [2] | Ratio IC50 (Homo sapiens) | IC50 [9] | IC50 (HeLa) | Structure (SMILES) | IC50 (K562 [3]) | Ratio (K562 [4]) | Ratio (K562 [5]) | Ratio (K562 [6]) | Ratio (K562 [7]) | Ratio (K562 [8]) | selectivity ratio (IMPDH2) | Ratio (K562 [10]) | Ratio (K562 [11]) | Ratio (K562 [12]) |
| --- | --- | --- | --- | --- | --- | --- | --- | --- | --- | --- | --- | --- | --- | --- | --- |
| 67000 nM | 72000 nM | 0.93 | – | – | COc1c(C)c2c(c(OC)c1C/C=C(\C)CCC(=O)O)C(=O)OC2 | > 50000 nM | 1.2 | 1.1 | 1.1 | 1.4 | 1 | – | – | – | – |
| – | – | – | 900 nM | 50000 nM | COc1c(C)c2c(c(OC)c1C/C=C(\C)CCC(=O)NO)C(=O)OC2 | – | – | – | – | – | – | – | – | – | – |
| 4100 nM | 4100 nM | 1 | – | – | COc1c(C)c2c(c(OC(C)=O)c1C/C=C(\C)CCC(=O)O)C(=O)OC2 | 590 nM | 4.2 | 5.3 | 6 | – | – | 0.14 | 1.8 | 2.9 | – |
| 150 nM | 170 nM | 0.88 | – | – | C/C(=C\Cc1c(O)c(C)c2c(c1O)C(=O)OC2)CCC(=O)O | 8200 nM | 1.1 | 1.1 | – | 1.8 | 3.1 | 48 | – | 1.4 | – |
| 770 nM | 790 nM | 0.97 | – | – | COc1c(C)c2c(c(O)c1C/C=C(\C)CCCO)C(=O)OC2 | 3900 nM | 0.7 | 1.3 | 2.5 | 3.8 | 4.7 | 4.9 | – | – | – |
| – | – | – | 500 nM | 1000 nM | CCCCCCCCCCCCOc1c(C/C=C(\C)CCC(=O)NO)c(OC)c(C)c2c1C(=O)OC2 | – | – | – | – | – | – | – | – | – | – |
| 350 nM | 420 nM | 0.83 | 1000 nM | 2000 nM | COc1c(C)c2c(c(O)c1C/C=C(\C)CCC(=O)NO)C(=O)OC2 [MYCOPHENOLIC HYDROXAMIC ACID] | 2100 nM | 1 | 2.9 | 3.2 | 1.8 | 1.7 | 5 | – | 0.8 | – |
| 1500 nM | 1400 nM | 1.1 | – | – | COC(=O)CC/C(C)=C/Cc1c(O)c2c(c(C)c1OC)COC2=O | 730 nM | 3.5 | 4.9 | 5.6 | – | – | 0.52 | 1 | 2.1 | 1 |
| – | – | – | 900 nM | 1500 nM | COc1c(C)c2c(c(OC(C)=O)c1C/C=C(\C)CCC(=O)NO)C(=O)OC2 | – | – | – | – | – | – | – | – | – | – |
| 19 nM | – | – | – | – | COc1c(C)c2c(c(O)c1C/C=C(\C)CCC(=O)O)C(=O)OC2 [MYCOPHENOLIC ACID] | – | – | – | – | – | – | – | – | – | – |
